*1 amine or outer side, *2 acyl side, *3 side chain or, on linkers, in order; H or OH if unused. Where a SMILES comes first, the peptide text is derived from it. Bridges are numbered along the chain shown (N, C = ends). Roman numbers before positions name the chains, in order. [ ]: non-standard residue; d: D form. Actinocin(9to1) = Cc1c2oc3c(C)ccc(C(=O)[*:1])c3nc-2c(C(=O)[*:2])c(N)c1=O; NMeV = CN[C@H](C(=O)O)C(C)C; Sar = CNCC(=O)O
How the values were obtained:
wildtype p53 = experiment: DLS detection with PUMA-AuNP nano-dumbbell probes of wtp53-RE binding in anticancer drug treated PonA induced H1299 cell lysates; type: cell-based; details: drug-treated PonA induced p53 H1299 cell lysate, versus untreated lysate
From the text: To investigate the applicability of the assay in accordance with the present embodiment to cell lysates, the H1299 Ecdysone-Inducible (EI) system for controllable and constitutive expression of p53 in H1299 cells induced by ponasterone A (PonA) was used. Referring to FIG. 7, bar graphs 700, 750 depict cell lysate analysis statistics in accordance with the present embodiment. The bar graph 700 plots size along the y-axis 704 and depicts wildtype p53 cell lysate 710 and three mutant p53 cell lysates: G245S 712, R273H 714 and R175H 716. The p53 null cell lysate (EI) 718, which serves as a negative control, gives negligible size shift from that of the PUMA-AuNP nano-dumbbell probes 720. Remarkably, clear distinctions between cell lysates with wtp53 710 and the DNA contact mutant retaining native structure (R273H) 714, the weakly stabilized mutant (G245S) 712 and the globally denatured mutant (R175H) 716 can be observed in the bar graph 700. Thus, it can be seen from the analytical results in the graph 700 that the bioassay in accordance with the present embodiment is not only sensitive and selective in the context of purified proteins but also applicable to highly complex biological samples.
Referring to FIG. 7B, the bar graph 750 plots size along the y-axis 754 and depicts detection of wildtype p53 in PonA induced p53 cell lysates 760 versus a […] cell lysate (EI) 762 (used together with the PUMA-AuNP nano-dumbbell probes 763 as a negative control), and an anticancer drug including ActD-treated 764, Dox-treated 766, and Etoposide-treated cell lysate 768.

mutant p53 (R175H) = target: T1, mutant p53 (R175H) (Homo sapiens, UniProt P04637, R175H); experiment: Mutant p53 reactivation drug screening in PonA induced H1299 cells, DLS with PUMA-AuNP nano-dumbbell probes; type: cell-based
T1 construct: expressed in transfected cells; host or cells: PonA induced H1299 cells
Experimental: (§1) The ability to clearly distinguish wildtype p53 from mutant p53 in cell lysates provides the potential of the assay in accordance with the present embodiment for screening drugs that can effectively reactivate mutant p53 directly in cells and recovered the biological samples from cell lysates for detection. FIG. 9 depicts a schematic diagram 900 showing the process of mutant reactivation drug screening. Incubation of drug with live cancer cells expressing mutant p53 for reactivation is performed 910 (Step 1). The drug treated cells are then chemically lysed 920 (Step 2). The resultant cell lysates are next subjected 930 to incubation with p53-RE functionalized AuNP nano-dumbbell probes (Step 3). The obtained DLS readout allow evaluation of whether the drug applied has successfully reactivated mutant p53 to restore its binding affinity to RE. Failure in p53 reactivation will give rise to no change in the position of the DLS signal in accordance with the present embodiment.
(§2) Referring back to Step 1, drugs to be tested are first incubated 912 with live cancer cells expressing mutp53 proteins. Drugs are then uptaken 914 by the cells and interact with the mutp53 proteins. The drug treated cancer cells are subsequently lysed at Step 2 (920) to obtain crude cell lysates. These cell lysates are incubated with RE-AuNP probes and DLS is finally employed to evaluate the efficiency of mutp53 reactivation 932. If the reactivation is successful 934, the reactivated p53 protein will have a restored binding toward the RE, thus leading to increase in the diameter of the p53 RE-AuNP probes as measured 936 by DLS. In contrast, failure in reactivation 938 will not restore the binding of mutp53 protein to the RE sequence on the nano-dumbbell probes, thus no change in DLS signal is measured 940. Thus, the bioassay in accordance with the present embodiment is able to evaluate the extent of mutant reactivation by comparing the DLS signal obtained with the wtp53 binding to RE. The effective concentration of drugs for reactivation can also be determined by performing a series of concentration-dependent experiments during cell reactivation
The bar graphs 1000, 1050 plot particle size along the y-axis 1004, 1054 and depict screening of mutant reactivation drugs.

mutant p53 (R273H) = target: T2, mutant p53 (R273H) (Homo sapiens, UniProt P04637, R273H); experiment: as above; type: cell-based
T2 construct: expressed in transfected cells; host or cells: PonA induced H1299 cells
Experimental: as §1, §2
However, the NSC drug has no effect at either low concentrations 1068 or high concentrations 1070 due to its specificity only to R175H mutant.

wtp53 in HCT116 cells = experiment: DLS detection with PUMA-AuNP nano-dumbbell probes of wtp53 expression level in drug treated HCT116 cell lysates; type: cell-based; details: HCT116 cell lysate after Mdm2 inhibitor treatment, mixed with PUMA-AuNP probes
From the text: Referring to FIG. 8, detection of wtp53 expression level in drug treated HCT116 cell lysates in accordance with the present embodiment is depicted in a bar graph 800. Besides the H1299 Ecdysone-Inducible cell lines, the effect of Mdm2 inhibitors such as nutlin 810, pm2 812, and vip82 814 on HCT116 cells was investigated. These inhibitors could inhibit Mdm2 targeted wtp53 degradation so that the wtp53 protein level in the HCT116 cell lysate will increase with the concentration of the drug applied. […] However, the extent of size increase is not as high as what was observed upon anticancer drug treatment presented. One possible explanation is that PUMA-AuNP nano-dumbbell probes are sensitive to detect activated wtp53 with enhanced binding to RE, whereas the over-expression of wtp53 may not enhance DNA binding.

p53 = p53 (Homo sapiens, UniProt P04637); experiment: Dissociation constant (KD) of p53 for DNA promoter sequences (Table 1); type: binding; details: concentration of p53 for 50% of the DNA to be bound; free dsDNA sequence
From the text: As aforestated, the p53 protein is a transcription factor which will bind specifically to DNA that contains RE sequences. In nature, wildtype p53 protein will bind to many promoter sequences and subsequently activate a wide range of genes for DNA repair, cell cycle arrest, apoptosis and its own degradation. As shown hereinabove, the bioassay in accordance with the present embodiment can be used for DNA selectivity study by conjugating different RE sequences to the AuNPs. However, it would be technically tedious to carry out conjugation for each DNA sequence and then screen for the binding affinity of a large number of promoter sequences. Therefore, a convenient competition assay which requires only one set of p53 RE-linked AuNPs has been designed in accordance with the present embodiment to evaluate the binding affinity of p53 protein to various promoter sequences listed in Table 1. This competition assay further allows the identification of the specific downstream pathway that is triggered upon p53 activation or reactivation, providing crucial information on the drug validation and outcome of the drug action.
The dissociation constant (KD) is defined as the concentration of p53 for 50% of the DNA to be bound. The lower the KD value, the stronger the binding affinity between wtp53 and the tested free DNA sequence. Thus, a smaller change in the size of the complex bound probes is expected due to the competitive binding of wtp53 between the free DNAs and conjugated RE sequences on AuNPs. […] Application of this assay to the activated or reactivated p53 proteins enables determination of which promoter sequence binds strongly and consequently identifies its downstream targets (apoptosis, cell cycle arrest or DNA repair).

[1] = high concentrations (++): COTI-2 1 μM, Prima-1^met 20 μM, NSC 3 μM
[2] = low concentrations (+): NSC 0.3 μM

Molecule	activation of wtp53 binding to the RE (DLS particle diameter of PUMA-AuNP probes) (wildtype p53)	reactivation of mutant p53 (R175H) to bind with PUMA-AuNP probes (mutant p53 (R175H); [1])	reactivation of mutant p53 (R175H) to bind with PUMA-AuNP probes (mutant p53 (R175H); [2])	reactivation of mutant p53 (R273H) to bind with PUMA-AuNP probes (mutant p53 (R273H); [1])	reactivation of mutant p53 (R273H) to bind with PUMA-AuNP probes (mutant p53 (R273H); [2])	Kd (p53)	also measured
Cc1c2oc3c(C)ccc(C(=O)N[C@@H]4C(=O)N[C@H](C(C)C)C(=O)N5CCC[C@H]5C(=O)N(C)CC(=O)N(C)[C@@H](C(C)C)C(=O)O[C@@H]4C)c3nc-2c(C(=O)N[C@@H]2C(=O)N[C@H](C(C)C)C(=O)N3CCC[C@H]3C(=O)N(C)CC(=O)N(C)[C@@H](C(C)C)C(=O)O[C@@H]2C)c(N)c1=O [ActD, actinomycin D] (I: T[dV]P[Sar][NMeV] / II: T[dV]P[Sar][NMeV]; ester I:1-I:C, II:1-II:C; linker I:N-II:N via Actinocin(9to1))	larger diameter						
S=C(N/N=C1\CCCc2cccnc21)N1CCN(c2ccccn2)CC1 [COTI-2]		successful reactivation	not at low concentrations	successful reactivation	not at low concentrations		
COc1cccc2c1C(=O)c1c(O)c3c(c(O)c1C2=O)C[C@@](O)(C(=O)CO)C[C@@H]3O[C@H]1C[C@H](N)[C@H](O)[C@H](C)O1 [Dox, doxorubicin]	larger diameter						
COc1cc([C@@H]2c3cc4c(cc3[C@@H](O[C@@H]3O[C@@H]5CO[C@@H](C)O[C@H]5[C@H](O)[C@H]3O)[C@H]3COC(=O)[C@H]23)OCO4)cc(OC)c1O [Etoposide, etoposide]	larger diameter						
CC(=NNC(=S)N1CC2CCC(CC2)C1)c1ccccn1 [NSC]		shows effect	shows effect	no effect	no effect		
COCC1(CO)C(=O)C2CCN1CC2 (stereo not shown) [Prima-1^met]		successful reactivation	not at low concentrations	successful reactivation	not at low concentrations		
COc1ccc(C2=NC(c3ccc(Cl)cc3)C(c3ccc(Cl)cc3)N2C(=O)N2CCNC(=O)C2)c(OC(C)C)c1 (stereo not shown) [nutlin]							wtp53 level in cell lysate detected by DLS size increase (wtp53 in HCT116 cells): increased wtp53 level
Bax a: p53 promoter dsDNA sequence, gene function apoptosis (sense TCATTCACAAGTTAGAGACAAGCCTAGCTC; antisense GAGCTAGGCTTGTCTCTAACTTGTGAATGA; DNA, backbone not given here)						73 ± 33 nM	
GADD45: p53 promoter dsDNA sequence, gene function DNA repair (sense ATCATGAACATGTCTAAGCATGCTGAGCTC; antisense GAGCTCAGCATGCTTAGACATGTTCATGAT; DNA, backbone not given here)						7.7 ± 1.2 nM	
ConA: Artificial consensus p53-binding dsDNA sequence; positive control (nucleic acid, chemistry not given here; one strand is listed 3' to 5', positive control) sense: GTTAGAGGGGCATGTCCGGGCATGTCCGGGCAGA antisense: CAATCTCCCCGTACAGGCCCGTACAGGCCCGTCT						3 nM	

Source: patent US20180172678A1, “Dynamic Light Scattering Nanoplatform For High-Throughput Drug Screening” (Agency for Science, Technology and Research, priority 2016, published 2018)
